Series [1] deals with human placental villous explants (extravillous trophoblasts). As to the kind of experiment: Human villous explant culture: EVT outgrowth and HLA-G transcript levels (trophoblast differentiation). In kind it is cell-based. The note with it: 96 h culture; for EVT outgrowth: villous explants 6-8 weeks of gestation, 3% O2, different doses; for transcript levels of HLA-G: villous explants, 3% O2, real-time RT-PCR. How it is done: (§1) Preparation and cultivation of human villous explants of first trimester placentas were performed as described (Non-patent Document 13). Briefly, human placental villi at 6-8 weeks of gestation were aseptically dissected to remove decidual tissue and fetal membranes. Small pieces of placental villi (8 mg wet weight) were dissected under a stereomicroscope (Leica Microsystems, Tokyo, Japan). Each villous piece was put on Millicell-CM culture dish inserts (12-mm diameter) (Millipore, Bedford, Mass.) that were precoated with 200 μl of undiluted Matrigel Growth Factor Reduced (BD Bioscience pharmingen) and placed in 24-well culture plates. The villous pieces were covered with 150 μl of culture medium (DMEM/F12 without serum supplemented with 100 U/ml penicillin, 100 μg/ml streptomycin, and 0.25 μg/ml ascorbic acid, pH 7.4) (Invitrogen, Carlsbad, Calif.), whereas the bottom chamber contained 500 μl of culture medium. […] Culture media were changed every 48 h and collected for measurement of glucose concentration.
(§2) At the end of cultures, some villous explants including EVT outgrowth were subjected to RNA extraction for real-time RT-PCR to quantify the transcript levels of human leukocyte antigen-G (HLA-G). Glucose utilization by the villous explants was calculated from the difference between glucose concentration in fresh medium and that in the conditioned medium after 48 h of culture using an enzymatic assay (Mitsubishi BCL, Tokyo, Japan). The results were expressed as mg per 0.1 g wet weight tissue/48 h.
(§3) Quantitative real-time RT-PCR of TrkB and human leukocyte antigen-G (HLA-G) transcript levels in placental villi and mouse kidneys with xenotransplanted human villi was performed using a SmartCycler (Takara, Tokyo, Japan) with primers and hybridization probes for TrkB and β-actin as described (Non-patent Document 32). Primers for TrkB corresponded to the catalytic kinase domain of the receptor to avoid the amplification of truncated isoforms (Non-patent Document 33). Fragmented TrkB was specifically amplified using a reported primer (Non-patent Document 37). Validated Taqman gene expression assay was used to quantify the expression of HLA-G (Applied Biosystems, Forster City, Calif.). Data were normalized based on β-actin transcript levels.

Series [2] concerns human placental villous explants (villous cytotrophoblasts). As to the kind of experiment: Human villous explant culture: trophoblast proliferation and viability (H&E, PCNA, Ki-67, glucose utilization). In kind it is cell-based. The note with it: for detachment of trophoblast layers from villous stromal core / number of villous cytotrophoblasts: 96 h culture, H&E, TrkB ectodomain 10 μg/ml, K252a 1,000 nM, K252b 1,000 nM. How it is done: as §1, §2
(§4) In some experiments, morphological changes in villous explants were evaluated by hematoxylin and eosin (H&E) staining. Furthermore, the activity of cellular proliferation was determined by immunohistochemical detection of proliferating cell nuclear antigen (PCNA) and Ki-67 antigens. To measure the progression of apoptosis, some villous explants were subjected to a quantitative caspase-3/7 enzyme assay as described (Non-patent Documents 12, 16). Apoptosis in villous explants was also assayed by detecting DNA fragmentation using in situ terminal deoxynucleotidyl transferase-mediated […] nick end-labeling (TUNEL) (Non-patent Document 17).
(§5) To localize BDNF and TrkB, BDNF and TrkB immunostaining in placental villi and villous tissues of ectopic pregnancy were performed as described (Non-patent Document 11). BDNF antigen and TrkB antigen were detected by rabbit anti-BDNF polyclonal antibody (Chemicon, Temecula, Calif.) and chicken anti-TrkB polyclonal antibody (Promega, Madison, Wis.) recognizing full length TrkB were used, respectively, after dilution to 1:100. Some slides were subjected to proliferating cell nuclear antigen (PCNA) or Ki-67 immunostaining to evaluate cellular proliferation, whereas cytokeratin and HLA-G immunostaining were performed to identify trophoblasts and extravillous trophoblasts (EVTs) in the xenotransplanted human villi, respectively. After deparaffinization and dehydration, antigen retrieval was performed by autoclave heating at 121° C. for 10 min (PCNA and Ki-67), treatment with 0.4 mg/ml proteinase K (Sigma, St. Louis, Mo.) at room temperature for 5 min (cytokeratin), or microwave heating in 10 mM citrate buffer (pH 6) for 3×3 min (HLA-G). Endogenous peroxidase activities were quenched with 0.3% […] in methanol for 30 min. […]

In series [3] the test system is human placental villous explants (villous trophoblasts). The experiment in a line: Human villous explant culture: apoptosis (TUNEL, caspase-3/7 enzyme assay). The class given is cell-based. The note with it: 96 h culture; for proportion of TUNEL-positive nuclei: TrkB ectodomain 10 μg/ml, K252a 1,000 nM, K252b 1,000 nM; for caspase-3/7 activities, increase relative to controls: villous explants, 3% O2. The protocol: as §1, §4

Series [4] relates to human placental villi transplanted under the kidney capsule. As to the kind of experiment: Xenotransplantation of human villi into SCID mice as in vivo model of ectopic pregnancy.
Source text: (§6) To explore the roles of endogenous TrkB signaling in human ectopic pregnancy, xenotransplantation of human placental villi at 7-8 weeks of gestation into SCID mice (C.B-17/Icr-scid/scidJcl) (CLEA Japan, Tokyo, Japan) was used as an in vivo model. The care and use of animals was approved by the Animal Research Committee, Akita University School of Medicine. In preparation of grafts, small pieces of the placental villi were dissected as described above and kept in ice-cold PBS until transplantation. After anesthetizing of the SCID mice at 8-11 weeks of age with tribromoethanol (14-20 mg/kg) (Sigma, St. Louis, Mo.), the left and right kidneys were sequentially exteriorized. A 0.5 mm incision was then made in each kidney capsule, and a piece of the placental villi (5 mg wet weight) was transplanted underneath the capsule using a blunt tip tweezers. Treatment was initiated in animals after 1 week of transplantation when murine vascular networks were known to appear in areas of cytotrophoblast invasion (Non-patent Document 18). Animals weighted between 19-22 g on day of treatment. Intraperitoneal (ip) administration of K252a dissolved in physiological saline (500 μg/kg) was performed daily. For negative controls, treatment with K252b (500 μg/kg) or vehicle alone was used. The doses of K252a and K252b chosen for these experiments were based on previous studies (Non-patent Documents 12, 19). Some animals were treated daily with methotrexate (ip; 1 mg/kg) (Sigma) corresponding to the therapeutic dose used for medical treatment of ectopic pregnancy (Non-patent Document 3). The mice were killed after 7 days of treatment. Kidneys with villi transplants were excised and homogenized to measure hCG-β levels and caspase-3/7 activities. To identify trophoblasts in the kidney, cytokeratin, a marker for trophoblasts (Non-patent Document 20), was detected by immunohistochemistry. In addition to H&E staining, in vivo cell proliferation and apoptosis in the excised samples were evaluated by immunostaining of PCNA and Ki-67, and the TUNEL assay, respectively.
as §3, §5

The nature of series [5]: Side effects and body weight of treated SCID mice. In kind it is in vivo.
Source text: as §6, with “Animals weighted between 19-22 g on day of treatment. Intraperitoneal (ip) administration of K252a dissolved in physiological saline (500 μg/kg) was performed daily. For negative controls, treatment with K252b (500 μg/kg) or vehicle alone was used. The doses of K252a and K252b chosen for these experiments were based on previous studies (Non-patent Documents 12, 19). Some animals were treated daily with methotrexate (ip; 1 mg/kg) (Sigma) corresponding to the therapeutic dose used for medical treatment of ectopic pregnancy (Non-patent Document 3). The mice were killed after 7 days of treatment. Kidneys with villi transplants were excised and homogenized to measure hCG-β levels and caspase-3/7 activities.” left out

Where [6] appears, read: K252a 500 μg/kg ip daily for 7 days.

Turning to “TrkB ectodomain: soluble ectodomain of TrkB (R&D Systems), binds BDNF and competingly suppresses BDNF/TrkB binding”, in series [1], the EVT outgrowth entry is “suppressed EVT outgrowth in a dose-dependent manner” and the “transcript levels of HLA-G” value is “decreases in the transcript levels of HLA-G”. Further, in series [2], the “detachment of trophoblast layers from villous stromal core” value is on record as “induced partial detachment of trophoblast layers” and the “number of villous cytotrophoblasts” value was “decreased the number of villous cytotrophoblasts”. In series [3], the “proportion of TUNEL-positive nuclei” value is reported as “increased the proportion of TUNEL-positive nuclei” and the “caspase-3/7 activities, increase relative to controls” value was “Increases in caspase-3/7 activities”.
As to `CN(Cc1cnc2nc(N)nc(N)c2n1)c1ccc(C(=O)N[C@@H](CCC(=O)O)C(=O)O)cc1` [MTX, methotrexate], in series [4] (MTX 1 mg/kg ip daily for 7 days), the “trophoblast differentiation, proliferation, and survival” value is on record as “did not inhibit”.
In the case of `C[C@]12O[C@H](C[C@]1(O)C(=O)O)n1c3ccccc3c3c4c(c5c6ccccc6n2c5c31)CNC4=O` [K252b], in series [4] (K252b 500 μg/kg ip daily for 7 days), the “all parameters tested in the xenotransplant model” value is given as “ineffective”.
As to `COC(=O)[C@@]1(O)C[C@H]2O[C@]1(C)n1c3ccccc3c3c4c(c5c6ccccc6n2c5c31)C(=O)NC4` [K252a], in series [1], the EVT outgrowth entry is listed as “suppressed EVT outgrowth in a dose-dependent manner” and the “transcript levels of HLA-G” value is “decreases in the transcript levels of HLA-G”. Moreover, in series [2], the “detachment of trophoblast layers from villous stromal core” value is “induced partial detachment of trophoblast layers” and the “number of villous cytotrophoblasts” value was “decreased the number of villous cytotrophoblasts”. Also, the inhibition (as a rule, the drop in the measured response relative to a control, in per cent) at 1 µM in series [2] (Homo sapiens, 48 h, read-out: glucose utilization by villous explants, inhibition) was above 94%. For the same molecule, in series [3], the “proportion of TUNEL-positive nuclei” value is “increased the proportion of TUNEL-positive nuclei” and the “caspase-3/7 activities, increase relative to controls” value was “Increases in caspase-3/7 activities”. Besides, in series [4] (setting [6]), the “TUNEL-positive nuclei in cytotrophoblasts” value was “increases in TUNEL-positive nuclei”; the “activation of caspase-3/7 within the xenografts, increase relative to vehicle” value came out at 4.1 fold; the “cell proliferation by PCNA and Ki-67 staining” value is reported as “suppression of cell proliferation”; the “transcript levels for HLA-G in kidney with transplanted villi” value is “major decreases in transcript levels for HLA-G”. Also, in series [4] (K252a 500 μg/kg ip daily for 7 days, RIA), the “decrease in hCG-β levels in tissue homogenates” value was 73.3%. Further, the “cell numbers of invading EVTs and cytotrophoblasts in villous cores” value in series [4] (K252a 500 μg/kg ip daily for 7 days, cytokeratin, HLA-G, H&E staining) is “decreases in cell numbers of invading EVTs and cytotrophoblasts”. The body weight in series [5] (500 μg/kg ip daily, during studies, mean±SEM) came out at 19.27 ± 1.03 g. In addition, the body weight changes result in series [5] (K252a 500 μg/kg ip daily) was “no body weight changes”.

(Values after patent US20140179677A1, “THERAPEUTIC AGENT FOR ECTOPIC PREGNANCY” (AKITA UNIVERSITY, priority 2010, published 2014).)
